The target of assay [1] is T1, Mitogen-activated protein kinase kinase kinase 7 (Homo sapiens) (UniProt O43318).
T1 sequence (whole entry): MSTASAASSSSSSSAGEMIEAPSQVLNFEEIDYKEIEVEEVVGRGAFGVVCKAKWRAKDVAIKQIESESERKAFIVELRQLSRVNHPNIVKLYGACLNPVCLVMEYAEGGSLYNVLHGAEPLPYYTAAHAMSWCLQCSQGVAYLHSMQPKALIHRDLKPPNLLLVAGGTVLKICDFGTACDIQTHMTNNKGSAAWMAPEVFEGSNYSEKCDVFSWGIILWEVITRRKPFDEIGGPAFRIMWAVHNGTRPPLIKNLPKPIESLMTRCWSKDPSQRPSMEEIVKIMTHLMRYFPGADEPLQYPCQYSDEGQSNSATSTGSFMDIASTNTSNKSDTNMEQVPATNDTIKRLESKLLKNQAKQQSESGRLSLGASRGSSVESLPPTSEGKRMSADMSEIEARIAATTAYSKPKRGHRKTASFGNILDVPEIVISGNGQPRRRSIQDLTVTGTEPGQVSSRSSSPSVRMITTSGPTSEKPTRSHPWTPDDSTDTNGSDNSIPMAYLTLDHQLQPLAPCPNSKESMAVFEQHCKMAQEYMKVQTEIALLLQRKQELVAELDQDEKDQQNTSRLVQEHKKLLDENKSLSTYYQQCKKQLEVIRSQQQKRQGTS
Kind of assay: Enzymatic radiometric [Km ATP] KinaseProfiler LeadHunter assay, kinase: TAK1, catalogue number: 14-600KP The assay has been performed by Eurofins Discovery. The conditions noted are these: ATP concentration 45.0 uM, Test compound concentration 10.0 uM.

For assay [2], the target named is Tyrosine-protein kinase Fyn (Homo sapiens) (UniProt P06241). Kind of assay: Enzymatic radiometric [Km ATP] KinaseProfiler LeadHunter assay, kinase: Fyn, catalogue number: 14-441KP The assay has been performed by Eurofins Discovery. The following applies: ATP concentration 70.0 uM, Test compound concentration 10.0 uM.
Tyrosine-protein kinase Fyn (Homo sapiens), sequence (P06241 2-537 limits assumed): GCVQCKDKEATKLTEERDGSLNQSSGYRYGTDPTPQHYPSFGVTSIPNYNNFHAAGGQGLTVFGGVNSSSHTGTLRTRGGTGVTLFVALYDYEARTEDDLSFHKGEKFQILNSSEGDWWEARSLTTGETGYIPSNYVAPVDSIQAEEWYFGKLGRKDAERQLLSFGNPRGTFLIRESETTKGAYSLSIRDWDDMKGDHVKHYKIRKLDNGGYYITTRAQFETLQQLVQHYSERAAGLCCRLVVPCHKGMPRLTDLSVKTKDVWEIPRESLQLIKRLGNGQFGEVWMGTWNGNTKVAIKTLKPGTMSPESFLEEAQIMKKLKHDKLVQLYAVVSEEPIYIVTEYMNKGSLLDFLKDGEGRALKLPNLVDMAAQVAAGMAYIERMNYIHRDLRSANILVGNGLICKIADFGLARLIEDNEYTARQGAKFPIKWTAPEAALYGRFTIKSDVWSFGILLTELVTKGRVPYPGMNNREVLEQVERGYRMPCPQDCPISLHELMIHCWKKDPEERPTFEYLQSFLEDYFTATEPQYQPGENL
In assay [3] the target is RAC-alpha serine/threonine-protein kinase (Homo sapiens) (UniProt P31749). As to the kind of experiment: Enzymatic radiometric [Km ATP] KinaseProfiler LeadHunter assay, kinase: PKB-alpha, catalogue number: 14-276KP The assay has been performed by Eurofins Discovery. The following applies: ATP concentration 155.0 uM, Test compound concentration 10.0 uM.
RAC-alpha serine/threonine-protein kinase (Homo sapiens), sequence (P31749 whole entry): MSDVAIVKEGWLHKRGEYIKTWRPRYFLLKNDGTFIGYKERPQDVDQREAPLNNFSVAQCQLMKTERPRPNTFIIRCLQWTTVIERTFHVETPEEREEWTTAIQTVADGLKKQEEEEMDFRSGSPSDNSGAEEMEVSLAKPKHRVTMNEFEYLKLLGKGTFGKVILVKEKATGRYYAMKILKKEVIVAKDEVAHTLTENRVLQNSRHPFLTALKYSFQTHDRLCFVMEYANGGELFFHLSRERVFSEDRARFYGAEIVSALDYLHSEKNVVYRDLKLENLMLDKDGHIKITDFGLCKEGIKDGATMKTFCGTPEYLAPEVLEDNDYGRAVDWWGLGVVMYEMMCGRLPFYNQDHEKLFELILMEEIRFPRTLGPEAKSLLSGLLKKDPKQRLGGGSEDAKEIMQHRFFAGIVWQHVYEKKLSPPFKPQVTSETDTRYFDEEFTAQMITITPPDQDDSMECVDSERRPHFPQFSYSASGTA
The target of assay [4] is Cyclin-dependent kinase 2/cyclin A (Homo sapiens) (UniProt P24941+P20248+P78396). As to the kind of experiment: Enzymatic radiometric [Km ATP] KinaseProfiler LeadHunter assay, kinase: CDK2/cyclinA, catalogue number: 14-448KP The assay has been performed by Eurofins Discovery. In kind it is protein-complex assay. The conditions noted are these: ATP concentration 45.0 uM, Test compound concentration 10.0 uM.

Assay [5] deals with Serine/threonine-protein kinase pim-1 (Homo sapiens) (UniProt P11309). As to the kind of experiment: Enzymatic radiometric [Km ATP] KinaseProfiler LeadHunter assay, kinase: Pim-1, catalogue number: 14-573KP The assay has been performed by Eurofins Discovery. The following applies: ATP concentration 90.0 uM, Test compound concentration 10.0 uM.
Serine/threonine-protein kinase pim-1 (Homo sapiens), sequence (P11309 whole entry, looked up): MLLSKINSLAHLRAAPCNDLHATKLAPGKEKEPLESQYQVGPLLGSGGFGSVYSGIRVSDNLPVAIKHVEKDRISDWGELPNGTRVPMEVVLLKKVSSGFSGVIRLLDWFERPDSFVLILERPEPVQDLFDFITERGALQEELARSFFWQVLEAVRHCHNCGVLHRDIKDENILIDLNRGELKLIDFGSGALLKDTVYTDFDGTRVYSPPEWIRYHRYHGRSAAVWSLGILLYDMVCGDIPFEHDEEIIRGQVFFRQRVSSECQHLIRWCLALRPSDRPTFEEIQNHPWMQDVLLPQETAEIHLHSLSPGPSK
Assay [6] addresses Rho-associated protein kinase 1 (Homo sapiens) (UniProt Q13464). As to the kind of experiment: Enzymatic radiometric [Km ATP] KinaseProfiler LeadHunter assay, kinase: ROCK-I, catalogue number: 14-601KP The assay has been performed by Eurofins Discovery. The conditions noted are these: ATP concentration 70.0 uM, Test compound concentration 10.0 uM.
Assay [7] concerns the target Epidermal growth factor receptor (Homo sapiens) (UniProt P00533). As to the kind of experiment: Enzymatic radiometric [Km ATP] KinaseProfiler LeadHunter assay, kinase: EGFR, catalogue number: 14-531KP The assay has been performed by Eurofins Discovery. The conditions noted are these: ATP concentration 10.0 uM, Test compound concentration 10.0 uM.
The target in assay [8] is Ribosomal protein S6 kinase beta-1 (Homo sapiens) (UniProt P23443). As to the kind of experiment: Enzymatic radiometric [Km ATP] KinaseProfiler LeadHunter assay, kinase: p70S6K, catalogue number: 14-486KP The assay has been performed by Eurofins Discovery. The conditions noted are these: ATP concentration 15.0 uM, Test compound concentration 10.0 uM.
Ribosomal protein S6 kinase beta-1 (Homo sapiens), sequence (P23443 whole entry, looked up): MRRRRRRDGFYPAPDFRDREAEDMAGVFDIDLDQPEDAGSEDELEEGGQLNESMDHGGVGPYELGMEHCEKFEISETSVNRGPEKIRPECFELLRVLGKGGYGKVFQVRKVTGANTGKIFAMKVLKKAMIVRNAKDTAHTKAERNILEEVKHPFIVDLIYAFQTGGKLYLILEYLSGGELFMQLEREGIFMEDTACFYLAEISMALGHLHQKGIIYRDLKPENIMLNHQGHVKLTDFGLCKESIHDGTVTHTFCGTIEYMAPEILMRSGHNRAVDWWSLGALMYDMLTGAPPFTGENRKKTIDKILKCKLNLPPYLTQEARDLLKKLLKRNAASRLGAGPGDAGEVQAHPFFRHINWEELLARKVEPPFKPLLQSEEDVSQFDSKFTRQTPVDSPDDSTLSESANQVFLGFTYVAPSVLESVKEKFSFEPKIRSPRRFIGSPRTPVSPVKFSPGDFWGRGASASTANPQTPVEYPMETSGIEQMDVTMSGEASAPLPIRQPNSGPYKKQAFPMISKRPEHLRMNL
Assay [9] has as its target Insulin-like growth factor 1 receptor (Homo sapiens) (UniProt P08069). As to the kind of experiment: Enzymatic radiometric [Km ATP] KinaseProfiler LeadHunter assay, kinase: IGF-1R, catalogue number: 14-465KP The assay has been performed by Eurofins Discovery. The following applies: ATP concentration 200.0 uM, Test compound concentration 10.0 uM.
Assay [10] deals with Casein kinase I isoform gamma-1 (Homo sapiens) (UniProt Q9HCP0). Kind of assay: Enzymatic radiometric [Km ATP] KinaseProfiler LeadHunter assay, kinase: CK1-gamma1, catalogue number: 14-711KP The assay has been performed by Eurofins Discovery. The conditions noted are these: ATP concentration 15.0 uM, Test compound concentration 10.0 uM.
Casein kinase I isoform gamma-1 (Homo sapiens), sequence (Q9HCP0 whole entry, looked up, canonical isoform): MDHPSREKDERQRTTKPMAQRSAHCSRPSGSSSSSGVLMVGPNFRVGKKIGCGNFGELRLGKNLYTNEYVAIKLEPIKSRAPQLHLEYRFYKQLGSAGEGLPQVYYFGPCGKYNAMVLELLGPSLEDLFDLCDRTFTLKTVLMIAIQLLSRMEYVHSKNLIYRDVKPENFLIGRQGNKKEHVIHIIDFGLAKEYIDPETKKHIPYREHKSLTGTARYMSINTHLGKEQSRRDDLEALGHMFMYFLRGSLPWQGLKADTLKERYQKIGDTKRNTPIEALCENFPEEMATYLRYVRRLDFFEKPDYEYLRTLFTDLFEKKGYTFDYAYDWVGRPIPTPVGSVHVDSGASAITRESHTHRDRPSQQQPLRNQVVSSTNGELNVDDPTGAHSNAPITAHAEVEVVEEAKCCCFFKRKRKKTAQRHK
The target of assay [11] is T2, Serine/threonine-protein kinase 4 (Homo sapiens) (UniProt Q13043).
T2 sequence (whole entry): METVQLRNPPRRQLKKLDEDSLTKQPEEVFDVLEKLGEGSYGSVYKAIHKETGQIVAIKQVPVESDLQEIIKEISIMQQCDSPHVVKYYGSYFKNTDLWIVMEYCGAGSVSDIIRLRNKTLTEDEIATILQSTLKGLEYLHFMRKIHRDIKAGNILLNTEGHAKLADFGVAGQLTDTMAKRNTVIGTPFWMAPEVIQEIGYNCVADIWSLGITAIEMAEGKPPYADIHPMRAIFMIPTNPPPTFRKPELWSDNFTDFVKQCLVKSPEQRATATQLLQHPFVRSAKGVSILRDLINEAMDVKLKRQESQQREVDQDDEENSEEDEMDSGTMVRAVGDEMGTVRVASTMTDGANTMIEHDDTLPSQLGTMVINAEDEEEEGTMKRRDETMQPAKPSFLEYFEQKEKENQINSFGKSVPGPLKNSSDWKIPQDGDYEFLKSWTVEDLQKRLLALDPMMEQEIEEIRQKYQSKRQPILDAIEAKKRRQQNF
Kind of assay: Enzymatic radiometric [Km ATP] KinaseProfiler LeadHunter assay, kinase: MST1, catalogue number: 14-624KP The assay has been performed by Eurofins Discovery. The following applies: ATP concentration 90.0 uM, Test compound concentration 10.0 uM.

Assay [12] addresses T3, MAP kinase-activated protein kinase 5 (Homo sapiens) (UniProt Q8IW41).
T3 sequence (whole entry): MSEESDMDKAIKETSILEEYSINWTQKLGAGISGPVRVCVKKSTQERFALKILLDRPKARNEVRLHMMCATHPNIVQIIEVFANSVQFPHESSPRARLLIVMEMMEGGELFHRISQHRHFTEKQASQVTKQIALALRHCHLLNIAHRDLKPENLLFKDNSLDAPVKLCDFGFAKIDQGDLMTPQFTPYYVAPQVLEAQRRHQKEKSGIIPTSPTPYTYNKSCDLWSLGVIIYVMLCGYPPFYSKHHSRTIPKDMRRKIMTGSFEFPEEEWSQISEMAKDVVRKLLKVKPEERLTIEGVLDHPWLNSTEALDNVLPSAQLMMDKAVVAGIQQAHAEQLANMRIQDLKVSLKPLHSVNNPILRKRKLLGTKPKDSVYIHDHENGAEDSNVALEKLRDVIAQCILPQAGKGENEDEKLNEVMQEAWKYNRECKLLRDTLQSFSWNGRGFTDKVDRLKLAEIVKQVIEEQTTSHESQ
Kind of assay: Enzymatic radiometric [Km ATP] KinaseProfiler LeadHunter assay, kinase: PRAK, catalogue number: 14-334KP The assay has been performed by Eurofins Discovery. The conditions noted are these: ATP concentration 15.0 uM, Test compound concentration 10.0 uM.

Insulin-like growth factor 1 receptor (Homo sapiens), sequence (P08069 31-736 limits assumed): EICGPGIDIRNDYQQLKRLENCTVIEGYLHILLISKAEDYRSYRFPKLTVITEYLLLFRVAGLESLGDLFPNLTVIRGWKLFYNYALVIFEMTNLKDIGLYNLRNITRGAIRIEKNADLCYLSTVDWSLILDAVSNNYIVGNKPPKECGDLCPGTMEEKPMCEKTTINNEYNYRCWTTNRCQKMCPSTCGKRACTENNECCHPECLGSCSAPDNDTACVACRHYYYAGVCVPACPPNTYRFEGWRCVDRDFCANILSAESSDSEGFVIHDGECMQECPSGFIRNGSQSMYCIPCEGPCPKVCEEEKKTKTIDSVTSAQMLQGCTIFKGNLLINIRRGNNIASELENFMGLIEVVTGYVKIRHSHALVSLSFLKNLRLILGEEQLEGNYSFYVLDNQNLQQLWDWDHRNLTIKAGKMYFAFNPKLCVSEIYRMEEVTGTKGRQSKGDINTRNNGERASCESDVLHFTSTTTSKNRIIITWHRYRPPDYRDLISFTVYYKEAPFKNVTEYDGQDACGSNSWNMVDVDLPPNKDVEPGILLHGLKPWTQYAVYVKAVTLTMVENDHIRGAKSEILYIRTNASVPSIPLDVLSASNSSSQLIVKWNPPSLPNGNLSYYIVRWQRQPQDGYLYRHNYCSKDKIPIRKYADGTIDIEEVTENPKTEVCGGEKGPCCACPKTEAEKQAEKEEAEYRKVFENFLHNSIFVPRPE
Insulin-like growth factor 1 receptor (Homo sapiens), sequence (P08069 741-1367 limits assumed): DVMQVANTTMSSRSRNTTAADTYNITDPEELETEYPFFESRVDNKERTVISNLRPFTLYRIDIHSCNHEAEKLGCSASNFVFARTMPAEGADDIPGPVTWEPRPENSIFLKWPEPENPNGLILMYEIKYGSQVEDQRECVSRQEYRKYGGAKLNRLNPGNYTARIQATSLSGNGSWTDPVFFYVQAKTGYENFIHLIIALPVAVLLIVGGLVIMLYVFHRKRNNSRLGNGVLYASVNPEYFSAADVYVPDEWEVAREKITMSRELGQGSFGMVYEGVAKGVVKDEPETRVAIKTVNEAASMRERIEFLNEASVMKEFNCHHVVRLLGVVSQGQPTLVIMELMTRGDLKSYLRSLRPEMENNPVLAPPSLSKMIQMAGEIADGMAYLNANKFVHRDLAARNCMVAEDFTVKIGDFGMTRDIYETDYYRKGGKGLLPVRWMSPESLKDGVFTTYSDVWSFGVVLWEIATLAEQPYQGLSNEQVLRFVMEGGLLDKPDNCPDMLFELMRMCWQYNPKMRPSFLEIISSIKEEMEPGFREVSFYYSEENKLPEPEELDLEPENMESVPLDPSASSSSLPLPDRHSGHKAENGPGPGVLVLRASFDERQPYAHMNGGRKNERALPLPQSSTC
Rho-associated protein kinase 1 (Homo sapiens), sequence (Q13464 2-1354 limits assumed): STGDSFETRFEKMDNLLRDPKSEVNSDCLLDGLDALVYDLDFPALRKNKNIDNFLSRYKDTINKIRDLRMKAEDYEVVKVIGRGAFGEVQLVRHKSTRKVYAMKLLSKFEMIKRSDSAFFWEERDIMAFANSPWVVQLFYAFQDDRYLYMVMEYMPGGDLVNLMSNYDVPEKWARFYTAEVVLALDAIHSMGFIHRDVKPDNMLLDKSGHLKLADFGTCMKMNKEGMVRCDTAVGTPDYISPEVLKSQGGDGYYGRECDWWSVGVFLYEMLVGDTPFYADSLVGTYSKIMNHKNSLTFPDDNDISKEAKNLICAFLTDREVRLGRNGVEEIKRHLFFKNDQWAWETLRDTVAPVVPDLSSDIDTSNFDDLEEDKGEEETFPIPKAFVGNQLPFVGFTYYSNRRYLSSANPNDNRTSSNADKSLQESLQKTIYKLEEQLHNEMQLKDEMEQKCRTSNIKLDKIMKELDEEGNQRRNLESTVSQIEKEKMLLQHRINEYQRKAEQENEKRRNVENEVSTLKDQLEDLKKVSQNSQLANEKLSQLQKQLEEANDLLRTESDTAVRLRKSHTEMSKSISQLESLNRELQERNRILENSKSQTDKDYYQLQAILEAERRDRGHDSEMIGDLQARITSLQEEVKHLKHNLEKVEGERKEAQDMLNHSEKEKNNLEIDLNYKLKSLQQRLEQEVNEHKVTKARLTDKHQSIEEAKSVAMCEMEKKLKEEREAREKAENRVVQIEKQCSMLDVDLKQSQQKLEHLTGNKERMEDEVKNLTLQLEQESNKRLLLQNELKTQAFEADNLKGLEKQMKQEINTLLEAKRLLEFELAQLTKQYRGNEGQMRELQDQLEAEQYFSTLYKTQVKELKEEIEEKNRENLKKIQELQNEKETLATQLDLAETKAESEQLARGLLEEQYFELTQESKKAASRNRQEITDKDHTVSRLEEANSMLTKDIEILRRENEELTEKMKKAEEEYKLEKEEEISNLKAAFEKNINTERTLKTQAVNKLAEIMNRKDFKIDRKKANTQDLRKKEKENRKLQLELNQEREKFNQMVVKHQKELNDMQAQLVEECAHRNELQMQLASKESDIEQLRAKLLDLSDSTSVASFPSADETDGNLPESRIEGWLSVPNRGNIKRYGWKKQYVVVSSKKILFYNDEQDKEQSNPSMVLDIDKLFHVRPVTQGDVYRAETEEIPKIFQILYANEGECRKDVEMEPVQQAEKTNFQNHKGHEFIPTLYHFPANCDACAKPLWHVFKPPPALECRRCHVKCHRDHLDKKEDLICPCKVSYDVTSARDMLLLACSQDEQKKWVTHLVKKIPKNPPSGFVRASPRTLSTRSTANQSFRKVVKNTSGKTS

With `CC(C)[C@H](Nc1ncnc2[nH]c(-c3cnn(C)c3C#N)cc12)c1ccc2c(n1)OCCO2`, the Activity was 94% in assay [1]; 80% in assay [2]; 90% in assay [3]; 104% in [4]; 98% in assay [5]; 115% in [6]. Besides, the Activity in assay [7] was found to be 90%; in [8], 125%; in [9], 85%; in assay [10], 100%; in assay [11] it was 120%; in assay [12], 84%.

As for `CC(C)[C@H](Nc1ncnc2[nH]ccc12)c1ccc2c(c1)S(=O)(=O)CCC2`, the Activity is 90% in assay [1]; 96% in assay [2]; 95% in [3]; 102% in assay [4]; 91% in [5]; 115% in assay [6]. The Activity in assay [7] is 95%; in assay [8], 103%; in assay [9], 100%; in assay [10], 97%; in assay [11] it was 126%; in assay [12], 102%.

With `COc1ccc([C@H](Cc2nnn[nH]2)NC(=O)c2ncnc3[nH]ccc23)cc1`, the Activity in assay [1] is 99%; in assay [2], 102%; in assay [3], 97%; in assay [4] it was 113%; in [5], 99%; in assay [6], 103%. Moreover, the Activity in assay [7] is 97%; in [8] it was 113%; in assay [9], 103%; in assay [10], 94%; in assay [11] it was 127%; in [12] it was 109%.

As to `Cn1ncc(-c2cc3c(N[C@@H](c4ccc5c(n4)OCCO5)C(C)(C)C)ncnc3[nH]2)c1C#N`, the Activity in assay [1] amounted to 95%; in assay [2], 82%; in assay [3] it was 103%; in [4], 114%; in assay [5], 107%; in assay [6], 129%. The Activity in assay [7] turned out to be 99%; in assay [8], 108%; in assay [9] it was 77%; in assay [10] it was 94%; in assay [11], 115%; in [12] it was 86%.

As for `CC(C)[C@@H](Nc1ncnc2[nH]c(C(=O)N[C@@H]3CCN(C)C3)cc12)c1ccc2c(c1)S(=O)(=O)CCC2`, the Activity in assay [1] was 100%; in [2], 107%; in assay [3], 88%; in assay [4], 117%; in [5], 97%; in [6], 98%. The Activity in [7] stood at 102%; in assay [8] it was 104%; in assay [9], 104%; in assay [10] it was 100%; in [11] it was 122%; in [12], 111%.

For the compound `CNC(=O)Cn1cc(-c2cc3c(N[C@@H](c4ccc5c(c4)S(=O)(=O)CCC5)C(C)C)ncnc3[nH]2)cn1`, the Activity in assay [1] was 99%; in assay [2] it was 65%; in [3], 95%; in assay [4] it was 95%; in assay [5], 97%; in [6], 104%. For the same compound, the Activity in assay [7] stood at 98%; in [8], 100%; in assay [9] it was 105%; in assay [10] it was 97%; in assay [11], 112%; in assay [12], 89%.

For `Cc1nn(C)cc1-c1cc2c(N[C@H](c3ccc4c(c3)S(=O)(=O)CCC4)C(C)C)ncnc2[nH]1`, the Activity in assay [1] came out at 100%; in assay [2] it was 32%; in [3], 91%; in assay [4] it was 107%; in [5], 95%; in [6], 103%. In addition, the Activity in assay [7] was 87%; in assay [8], 108%; in assay [9], 97%; in assay [10] it was 99%; in assay [11], 115%; in [12] it was 82%.

`COc1ccc([C@@H](Cc2nnn[nH]2)NC(=O)c2ncnc3[nH]ccc23)cc1`: the Activity stood at 88% in [1]; 105% in assay [2]; 94% in [3]; 97% in [4]; 91% in [5]; 93% in assay [6]. For the same compound, the Activity in assay [7] was 96%; in [8] it was 81%; in [9], 106%; in assay [10] it was 95%; in assay [11], 98%; in [12], 95%.

Regarding `CNCc1cc(-c2cc3c(N[C@@H](c4ccc5c(c4)S(=O)(=O)CCC5)C(C)C)ncnc3[nH]2)co1`, the Activity amounted to 90% in assay [1]; 64% in assay [2]; 96% in assay [3]; 98% in assay [4]; 93% in assay [5]; 102% in [6]. For the same compound, the Activity in [7] worked out at 97%; in [8] it was 110%; in assay [9] it was 99%; in assay [10], 99%; in assay [11], 108%; in assay [12] it was 122%.

In the case of `CC(C)[C@@H](Nc1ncnc2[nH]ccc12)c1ccc2c(c1)S(=O)(=O)CCC2`, the Activity worked out at 83% in [1]; 127% in [2]; 96% in [3]; 96% in assay [4]; 80% in assay [5]; 110% in assay [6]. The Activity came to 102% in assay [7]; 98% in [8]; 88% in assay [9]; 102% in assay [10]; 88% in [11]; 107% in [12].

The values are drawn from ChEMBL document CHEMBL5442741, “ASAP - In vitro kinase profile” (2024).
